From patent US12589090B2, “Compounds and methods for the treatment of degenerative disorders” (Aquilus Pharmaceuticals, Inc., priority 2019, dated 2026)
“Also recorded” adds a separate entry of the source.

Legend:
[1] = In-vivo oral rat pharmacokinetics (Example 15); conditions: male Sprague-Dawley rats, dose level 10 mg/kg, 0.5% MC, plasma, mean
Protocol: Understanding the pharmacokinetics in species typically employed in preclinical animal testing is an essential component of drug discovery. […] Procedure: Six (6) male Sprague-Dawley rats were used. Fasting was conducted at least 16 hours prior to dose administration. Food was returned at approximately 4 hours post dose. The animals were placed into 2 groups of 3 animals per group. The oral (PO) formulation for Groups 1 & 2 were prepared on the day of dosing at a target concentration of 0.5 mg/mL in 0.5% Methylcellulose (400 cps) to produce a white, homogeneous suspension. Dosing was performed as outlined in Table 1:
Whole blood samples (0.250 mL; K2EDTA anticoagulant) were collected from each animal through a jugular vein catheter. Whole blood samples were collected from all animals pre-dose, and at 0.25, 0.5, 1, 2, 4, 8, 16, and 24 hours after dose administration. All blood samples were immediately placed on ice until processing. Whole blood samples were centrifuged at 2200×g for 10 minutes in a refrigerated centrifuge (5±3° C.) to isolate plasma. The plasma samples were transferred to individual polypropylene vials and immediately placed on dry ice before storage at nominally −20±5° C. The plasma samples sometime later were then thawed and extracted and analyzed by high pressure liquid chromatography (HPLC) coupled to Mass Spectrometry (MS) (Table 2). Pharmacokinetic parameters (Table 3) were estimated using WinNonlin® pharmacokinetic software (Version No. 5.2.1) using a non-compartmental approach consistent with the PO route of administration.

[2] = system: SOD-1 overexpression in Drosophila motor neurons; assay: SOD-1 Drosophila model of ALS, larval turning read-out (Example 24); type: in vivo; conditions: 1 microMolar, SOD-1 (wild-type and G85R) overexpression, vs. DMSO vehicle
Protocol: Procedure: Following the method of Zarnescu and coworkers (Human Molecular Genetics, 24(6), 1741-1754, 2015). UAS SOD-1 male Drosophila flies were crossed with D42-Gal4 female virgins on fly food containing either DMSO or 1% Compound 118 in dimethyl sulfoxide (DMSO). For DMSO controls, the same volume of DMSO as the corresponding Compound 118 concentration was added. Bromophenol blue was added to a final concentration of around 0.02% to ensure homogeneity. Crosses were made on drug food with three female virgins and two males in each vial and were maintained at 25° C. unless noted. The parents were discarded after 5-7 days and then the vials were screened for adult progeny with straight wings from Day 14 to Day 25. All adults were screened for SOD-1 expression. Read-outs involved the larval turning assay.
SOD-1^wt=Wild-type, SOD1^G85R=Diseases associated G85R mutant expressed in motor neurons. […], ***p<0.001 as compared to DMSO vehicle.

Caspase 3 = Caspase 3 protein level in dorsal root ganglion of SNL rats via Western blotting (Examples 10, 17); type: in vivo, Sprague Dawley rats; conditions: Left DRG of SNL rats, 160 mg/Kg PO for 5 days, vs. Vehicle treated SNL rats, unpaired t-test
Description: Western blotting is a widely used analytical technique used to detect specific proteins in a sample of tissue homogenate or extract. Before one can perform Western blotting one must develop a technique for extracting the protein to be measured from the target tissue. Below is an example of the measurement of Caspase 3 from rat dorsal root ganglion (DRG) using Western blotting.
Protein Extraction Preparation: Frozen DRG tissue samples were homogenized in a radioimmunoprecipitation assay (RIPA) buffer (75 μl per sample) using a handheld pestle homogenizer, 30 seconds on ice. Samples were cleared by centrifugation at 14,000 rpm for 15 minutes at 4° C. Supernatants were collected and protein amount was determined using Bio-Rad DC protein kit.
Western Blotting: Protein samples were denatured in Laemmli buffer/2-mercaptoethanol for 5 minutes at 95 C. Denatured protein samples were separated by SDS-PAGE. After electrophoresis, proteins were transferred from gel to LFP-PVDF membranes by electroblotting. […]
Antibody binding was detected using the ECL Plus Western Chemifluorescence Detection Kit (Cat #32132, ThermoFisher Scientific). […] The scanned images from the Typhoon were analyzed with ImageQuantTL software version 7.0 (GE Healthcare Bioscience, Piscataway, NJ). Band intensities were determined using the Rolling Ball method. […]

[2H]C([2H])([2H])c1ccc(C#Cc2ccc(S(=O)(=O)N[C@H](Cc3c[nH]c4ccccc34)C(=O)O)s2)cc1 [Compound 118, (R)-3-(1H-Indol-3-yl)-2-[5-(4-trideuteromethyl-phenylethynyl)-thiophene-2-sulfonylamino]-propionic acid-(D3, 98%)] showed an AUC(0-inf) [1] of 7730 ng·h/mL, an AUC(0-t) [1] of 7680 ng·h/mL and a Cmax [1] of 2740 ng/mL. For the same molecule, the half-life [1] was 88.2 min, the “locomotive defects via larval turning times” value [2] was “able to mitigate locomotive defects” and the “caspase 3 protein level in dorsal root ganglion (Western blotting)” value (Caspase 3) was “significant decrease of caspase 3 protein; also recorded: decrease in the caspase-3 protein levels”.
